Measured values taken from publication PMC6270778, “Novel Cinnamic Acid Derivatives as Antioxidant and Anticancer Agents: Design, Synthesis and Modeling Studies” (Molecules, 2014).

What was measured:
[1] = Hydroxyl radicals scavenging activity (Fe3+/ascorbic acid system, competition with DMSO); details: 0.1 mM; no = no action under the used experimental conditions
Method: Thus we evaluated our acids for their competition with DMSO for ˙OH radicals was measured, hydroxyl radicals were produced by the Fe^3+/ascorbic acid system and expressed as percent inhibition of formaldehyde formation at 0.1 mM concentration (Table 3).
The hydroxyl radicals were produced by the Fe ^3+/ascorbic acid system. EDTA (0.1 mM), Fe ^3+ (167 μM), DMSO (33 mM) in phosphate buffer (50 mM, pH 7.4), the tested compounds (0.1 mM) and ascorbic acid (10 mM) were mixed in test tubes. The solutions were incubated at 37 °C for 30 min. The reaction was stopped by CCl3COOH (17% w/v) (Table 4) and the % scavenging activity of the tested compounds for hydroxyl radicals was given.

soybean lipoxygenase = molecular target: T1, soybean lipoxygenase (Glycine max, UniProt P08170); test: Soybean lipoxygenase inhibition study in vitro (UV-based enzyme assay); format: biochemical; details: for inhibition at 10 µM: 0.01 mM, read-out: LOX inhibition % (±SD); for IC50: sodium linoleate 0.1 mM, read-out: LOX IC50 (±SD)
T1 construct: purchased Sigma Chemical, Co. (St. Louis, MO, USA)
T1 sequence (P08170 1-839): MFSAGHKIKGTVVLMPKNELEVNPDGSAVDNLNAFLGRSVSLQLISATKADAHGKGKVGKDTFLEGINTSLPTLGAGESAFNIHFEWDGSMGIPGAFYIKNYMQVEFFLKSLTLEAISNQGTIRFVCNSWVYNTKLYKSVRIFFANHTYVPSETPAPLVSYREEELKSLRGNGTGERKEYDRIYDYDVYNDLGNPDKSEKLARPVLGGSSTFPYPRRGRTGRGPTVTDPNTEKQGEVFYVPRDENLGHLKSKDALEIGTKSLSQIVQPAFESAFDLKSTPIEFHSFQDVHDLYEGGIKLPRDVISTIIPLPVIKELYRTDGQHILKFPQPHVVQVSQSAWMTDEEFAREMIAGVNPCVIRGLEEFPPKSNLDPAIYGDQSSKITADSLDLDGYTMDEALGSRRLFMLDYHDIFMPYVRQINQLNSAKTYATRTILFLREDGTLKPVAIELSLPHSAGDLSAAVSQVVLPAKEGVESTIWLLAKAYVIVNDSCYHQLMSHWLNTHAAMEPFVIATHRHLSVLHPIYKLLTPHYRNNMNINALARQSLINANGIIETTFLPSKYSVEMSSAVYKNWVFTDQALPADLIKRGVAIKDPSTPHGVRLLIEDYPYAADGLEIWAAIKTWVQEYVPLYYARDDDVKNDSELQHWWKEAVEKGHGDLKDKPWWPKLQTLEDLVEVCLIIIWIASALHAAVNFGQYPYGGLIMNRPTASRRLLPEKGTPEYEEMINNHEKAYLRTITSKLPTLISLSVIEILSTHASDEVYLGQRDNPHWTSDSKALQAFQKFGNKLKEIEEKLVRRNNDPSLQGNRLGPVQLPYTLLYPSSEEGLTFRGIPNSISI
Method: The evaluation of the novel acids against soybean lipoxygenase LOX was accomplished by the UV-based enzyme assay of Pontiki and Hadjipavlou-Litina. This assay may be used as a qualitative or semi-quantitative screen for such activity.
In vitro inhibitory LOX assay is accomplished as described previously. The novel derivatives for testing (stock solutions 10 mM in DMSO) were incubated at room temperature with sodium linoleate (0.1 mM) and 0.2 mL of LOX enzyme solution (1/9 × 10^−4w/v in saline). The conversion of sodium linoleate to 13-hydroperoxylinoleic acid was measured at 234 nm and compared with the reference inhibitor. Several concentrations were used for the IC50 determination (Table 2).

MDA-MB-231 (breast) = test: SRB cytotoxicity assay, MDA-MB-231; format: cell-based; details: Homo sapiens, 50% growth inhibition, 48 h exposure
Method: (§1) Human cancer cell lines used as targets were HT-29 (colon), A-549 (lung), OAW-42 (ovarian), MDA-MB-231 (breast), HeLa (immortal cells from cervical cancer). All cells were obtained from the American Type Culture Collection (ATCC). Cells were routinely grown as monolayer cell cultures in T-75 flasks (Costar) in an atmosphere containing 5% CO2 in air and 100% relative humidity at 37 °C and subcultured twice a week, restricting the total number of cell passages below 20. The culture medium used was Dulbecco’s modified Eagle’s medium (DMEM, Gibco, Grand Island, NY, USA) supplemented with 10% fetal bovine serum (Gibco), 2 mM glutamine (Sigma), 100 μg/mL streptomycin and 100 IU/mL penicillin.
(§2) Cell passages were carried out by detaching adherent, logarithmically growing cells after addition of 2–3 mL of a mixture of 0.05% solution of trypsin (Gibco, 1:250) in phosphate-buffered saline (PBS) with 0.02% EDTA and incubation for 3–5 min at 37 °C. For the experiments, cells were plated (100 μL containing 10,000 cells/well) in 96-well flat-bottom microplates microplates (Costar-Corning, Acton, MA 01720, USA) so that untreated cells were in exponential growth phase at the time of cytotoxicity evaluation. Cells were left for 24 h at 37 °C to resume exponential growth and stabilization and afterwards exposed to tested agents for 48 h by the addition of an equal volume (100 μL) of either complete culture medium (control wells), or twice the final drug concentrations diluted in complete culture medium (test wells). Drug cytotoxicity was measured by means of the SRB colorimetric assay estimating the survival fractions (SF) as the percent of control (untreated cells) absorbance. The SRB assay was carried out as previously described and modified by our group. In brief, culture medium was aspirated prior to fixation using a microplate-multiwash device (Tri-Continent Scientific, Inc., Grass Valley, CA, USA) and 50 μL of 10% cold (4 °C) trichloroacetic acid (TCA) were gently added to the wells. Microplates were left for 30 min at 4 °C, washed five times with deionized water and left to dry at room temperature for at least 24 h. Subsequently, 70 μL of 0.4% (w/v) sulforhodamine B (Sigma) in 1% acetic acid solution were added to each well and left at room temperature for 20 min. SRB was removed and the plates were washed five times with 1% acetic acid before air drying. Bound SRB was solubilized with 200 μL of 10 mM unbuffered Tris-base solution and plates were left on a plate shaker for at least 10 min. Absorbance was read in a 96-well plate reader at 492 nm subtracting the background measurement at 620 nm. The test optical density (OD) value was defined as the absorbance of each individual well, minus the blank value (“blank” is the mean optical density of the background control wells, n = 8). Mean values and the coefficient of variation (CV) from six replicate wells were calculated automatically. Results were expressed as the “survival fraction” (SF), as shown below.
(§3) For each tested compound a dose-effect curve was produced. Sextuplicate determinations gave a CV (Standard Deviation/mean %) of much less than 10%, resulting in standard error (SE) which was very low in all cases. The data showing inhibition of cellular growth are expressed as the fraction of cells that remains unaffected (fu) (survival fraction, SF), which is derived from the following equation: fu = ODx/ODc where ODx and ODc represent the test and the control optical density, respectively.

HT-29 (colon) = test: SRB cytotoxicity assay, HT-29; format: cell-based; details: Homo sapiens, 50% growth inhibition, 48 h exposure
Method: as §1, §2, §3

Row | SMILES | HO (%) (±SD) [1] | inhibition at 10 µM (soybean lipoxygenase) [%] | IC50 (MDA-MB-231 (breast)) [µM] | IC50 (HT-29 (colon)) [µM] | IC50 (soybean lipoxygenase) [µM]
1 | O=C(O)C=CC=Cc1ccccc1 [Compound 3ii, 5-Phenylpenta-2,4-dienoic acid] | 81 ± 1.2% | 24 | > 240 | > 240 | –
2 | N#Cc1ccc(C=C(C(=O)O)c2ccccc2)cc1 [Compound 1i, 3-(4-Cyanophenyl)-2-phenylacrylic acid] | no | – | > 240 | > 240 | 60 ± 0.4
3 | O=C(O)C=CC=Cc1ccc([N+](=O)[O-])cc1 [Compound 2ii, 5-(4-Nitrophenyl)penta-2,4-dienoic acid] | no | 31 | > 240 | > 240 | –
4 | O=C(O)C(=CC=Cc1ccc([N+](=O)[O-])cc1)c1ccccc1 [Compound 2i, 5-(4-Nitrophenyl)-2-phenylpenta-2,4-dienoic acid] | 33 ± 0.8% | – | 199 ± 1.9 | 141 ± 1.8 | 66.5 ± 1.2
5 | N#Cc1ccc(C=CC(=O)O)cc1 [Compound 1ii, 3-(4-Cyanophenyl)acrylic acid] | no | 27 | > 240 | > 240 | –
6 | O=C(O)C(=CC(Br)=Cc1ccccc1)c1ccccc1 [Compound 4i, 4-Bromo-2,5-diphenylpenta-2,4-dienoic acid] | no | – | 250 ± 1.2 | > 240 | 74 ± 1.8
7 | O=C(O)C=CC(Br)=Cc1ccccc1 [Compound 4ii, 4-Bromo-5-phenylpenta-2,4-dienoic acid] | 100 ± 1.8% | – | 47.5 ± 0.7 | 54 ± 1.1 | 10 ± 0.05
8 | O=C(O)C(=CC=Cc1ccccc1)c1ccccc1 [Compound 3i, 2,5-Diphenylpenta-2,4-dienoic acid] | 81 ± 1.9% | – | > 240 | > 240 | 74 ± 1.7
